Source: US8889876B2, “Histone deacetylase inhibitors and uses thereof” (Jiangsu Hengyi Pharmaceutical Co., Ltd., priority 2008, dated 2014)

Assays:
[1] = tested on: Hut78 T-cell Leukemia cell; experiment: CCK-8 proliferation inhibition, Hut78; assay type: cell-based; conditions: for inhibition at 10 µM / inhibition at 100 µM: Homo sapiens, read-out: Hut-78 (inhibition %); for inhibition at 10 µM: HuT78, 10 μM; for inhibition at 100 µM: HuT78, 100 μM
Procedure: (§1) Detecting the inhibition rate of the compound concentrations of 100 μM and 10 μM to Hut78 T-cell Leukemia cell, Jurkat E6-1 human T-cell lymphoma, PANC-1 human pancreatic cancer cells, A549 human lung cancer cells, K562 human chronic myeloid leukemia cells, Hep3B2.1-7 human liver cancer cells, MDA-MB-435s human breast cancer cells, Colo320 human rectal cancer cells and PC-3 human prostate cancer using CCK-8 method.

[2] = tested on: A549 human lung cancer cells; experiment: CCK-8 proliferation inhibition, A549; assay type: cell-based; conditions: CCK-8 method; for inhibition at 10 µM / inhibition at 100 µM: Homo sapiens, A549
Procedure: as §1

[3] = tested on: K562 human chronic myeloid leukemia cells; experiment: CCK-8 proliferation inhibition, K562; assay type: cell-based; conditions: for inhibition at 10 µM / inhibition at 100 µM: Homo sapiens; for inhibition at 10 µM: K562, 10 μM; for inhibition at 100 µM: K562, 100 μM
Procedure: as §1

[4] = tested on: Jurkat E6-1 human T-cell lymphoma; experiment: CCK-8 proliferation inhibition, Jurkat E6-1; assay type: cell-based; conditions: for inhibition at 10 µM / inhibition at 100 µM: Homo sapiens; for inhibition at 10 µM: Jurkat E6.1, 10 μM; for inhibition at 100 µM: Jurkat E6.1, 100 μM
Procedure: as §1

[5] = tested on: Colo320 human rectal cancer cells; experiment: CCK-8 proliferation inhibition, Colo320; assay type: cell-based; conditions: CCK-8 method; for inhibition at 10 µM / inhibition at 100 µM: Homo sapiens, COLO 320
Procedure: as §1

[6] = tested on: Hep3B2.1-7 human liver cancer cells; experiment: CCK-8 proliferation inhibition, Hep3B2.1-7; assay type: cell-based; conditions: CCK-8 method; for inhibition at 10 µM / inhibition at 100 µM: Homo sapiens, Hep3B
Procedure: as §1

[7] = tested on: PC-3 human prostate cancer; experiment: CCK-8 proliferation inhibition, PC-3; assay type: cell-based; conditions: CCK-8 method; for inhibition at 10 µM / inhibition at 100 µM: Homo sapiens
Procedure: as §1

[8] = tested on: MDA-MB-435s human breast cancer cells; experiment: CCK-8 proliferation inhibition, MDA-MB-435s; assay type: cell-based; conditions: CCK-8 method; for inhibition at 10 µM / inhibition at 100 µM: Homo sapiens, MDA-MB-435S
Procedure: as §1

histone deacetylase = experiment: in vitro inhibition of histone deacetylase by HDAC inhibitor screening kit (Biovision K340-100); assay type: biochemical
Procedure: An assay for determining the in vitro inhibition activity of the compound on histone deacetylase is conducted according to the specification of HDAC inhibitor screeing kid (Biovision Company/Catalog #K340-100). […]

[9] = tested on: PANC-1 human pancreatic cancer cells; experiment: CCK-8 proliferation inhibition, PANC-1; assay type: cell-based; conditions: for inhibition at 10 µM / inhibition at 100 µM: Homo sapiens; for inhibition at 10 µM: PANC-1, 10 μM; for inhibition at 100 µM: PANC-1, 100 μM
Procedure: as §1

Compound	inhibition at 10 µM [1] [%]	inhibition at 100 µM [1] [%]	inhibition at 10 µM ([2]; compound concentration 10 μM) [%]	inhibition at 100 µM ([2]; compound concentration 100 μM) [%]	inhibition at 10 µM [3] [%]	inhibition at 100 µM [3] [%]	inhibition at 10 µM [4] [%]	inhibition at 100 µM [4] [%]	inhibition at 10 µM ([5]; compound concentration 10 μM) [%]	inhibition at 100 µM ([5]; compound concentration 100 μM) [%]	inhibition at 10 µM ([6]; compound concentration 10 μM) [%]	inhibition at 100 µM ([6]; compound concentration 100 μM) [%]	inhibition at 10 µM ([7]; compound concentration 10 μM) [%]	inhibition at 100 µM ([7]; compound concentration 100 μM) [%]	inhibition at 10 µM ([8]; compound concentration 10 μM) [%]	inhibition at 100 µM ([8]; compound concentration 100 μM) [%]	inhibition at 10 µM [9] [%]	inhibition at 100 µM [9] [%]	further results
Nc1cnccc1NC(=O)c1ccc(CNC(=O)OCc2ccccc2)cc1 [V-7]	18.2	72.9	-7.8	72.3	51	85.1	27.1	96	-7.1	47.2	-12.3	59.2	0.6	36.9	4.5	85.5	5.7	5.5	Inhibition rate(%) (histone deacetylase; 3.91 μM): 9.5%; Inhibition rate(%) (histone deacetylase; 62.5 μM): 36.0%; Inhibition rate(%) (histone deacetylase; 2 mM): 78.2%
Nc1ncccc1NC(=O)c1ccc(CNC(=O)OCc2ccccc2)cc1 [V-8, N-(2-amino-3-pyridyl)-4-(benzyloxyacylaminomethyl)benzamide]	6.4	15.8	-43.9	-19.4	-1.3	38.1	5.4	23.7	7.1	16.8	-10.2	-12.1	5.2	15.9	-20.7	-10.4	14.4	11.9	Inhibition rate(%) (histone deacetylase; 3.91 μM): 6.3%; Inhibition rate(%) (histone deacetylase; 62.5 μM): 10.3%; Inhibition rate(%) (histone deacetylase; 2 mM): 35.3%
Cc1ccc(COC(=O)NCc2ccc(C(=O)Nc3cccnc3N)cc2)cc1 [V-9, N-(2-amino-3-pyridyl)-4-[(4-methylbenzyloxyacyl)aminomethyl]benzamide]	15	43.9	-44.3	-13.1	49.4	83.2	62.2	87.9	13	45.3	7.3	66.6	0	66.7	-14.3	84.1	10.5	45.9	Inhibition rate(%) (histone deacetylase; 3.91 μM): 2.8%; Inhibition rate(%) (histone deacetylase; 62.5 μM): 16.8%; Inhibition rate(%) (histone deacetylase; 2 mM): 36.7%
Nc1cnccc1NC(=O)c1ccc(CNC(=O)CCc2ccccc2)cc1 [V-49]	2.3	54.4	-9.5	39.9	22.1	71	28.4	93.7	-2.5	33.8	11	63.4	28.3	53.8	10.3	51.9	-6.1	7.3	–
Cc1ccc(CCC(=O)NCc2ccc(C(=O)Nc3cccnc3N)cc2)cc1 [V-50, N-(2-amino-3-pyridyl)-4-[3-(4-methylphenyl)propionylaminomethyl]benzamide]	0.4	46.9	8.6	14.2	23.8	75.7	8.9	75.9	6.8	27.4	-0.5	23.5	5.5	-3.8	14.7	36.9	10.2	12.9	–
Cc1ccc(CCC(=O)NCc2ccc(C(=O)Nc3ccncc3N)cc2)cc1 [V-51]	-0.5	35.2	-8.9	-3.2	-2.4	53.5	14.8	42.4	-5.7	7.9	24.9	26.9	21.4	45	14.1	31.3	1.4	-6.1	–
COc1ccc(CCC(=O)NCc2ccc(C(=O)Nc3cccnc3N)cc2)cc1 [V-52, N-(2-amino-3-pyridyl)-4-[3-(4-methoxyphenyl)propionylaminomethyl]benzamide]	6.5	50.8	9.8	9.9	29	67.3	7.6	73.8	8	17.7	19	78.6	-7.4	24.7	13.9	22.8	13.3	17.7	–
COc1cc(CCC(=O)NCc2ccc(C(=O)Nc3ccnc(N)c3)cc2)cc(OC)c1OC [V-55, N-(2-amino-4-pyridyl)-4-[3-(3,4,5-methoxyphenyl)propionylaminomethyl]benzamide]	–	–	–	–	–	–	–	–	–	–	–	–	–	–	–	–	–	–	Hut-78 (inhibition %) ([1]; 10 μM): −5.5%; Hut-78 (inhibition %) ([1]; 100 μM): −2.4%; A549 (inhibition %) ([2]; compound concentration 10 μM): −16.5%; A549 (inhibition %) ([2]; compound concentration 100 μM): −15.3%; K562 (inhibition %) ([3]; 10 μM): −12.8%; K562 (inhibition %) ([3]; 100 μM): −17.4%; Jurkat E6-1 (inhibition %) ([4]; 10 μM): 10.6%; Jurkat E6-1 (inhibition %) ([4]; 100 μM): 0.6%; Colo320 (inhibition %) ([5]; compound concentration 10 μM): −11.2%; Colo320 (inhibition %) ([5]; compound concentration 100 μM): −2.8%; Hep3B (inhibition %) ([6]; compound concentration 10 μM): 21.7%; Hep3B (inhibition %) ([6]; compound concentration 100 μM): 7.2%; PC-3 (inhibition %) ([7]; compound concentration 10 μM): 13.3%; PC-3 (inhibition %) ([7]; compound concentration 100 μM): 10.9%; 435s(inhibition %) ([8]; compound concentration 10 μM): 6.5%; 435s(inhibition %) ([8]; compound concentration 100 μM): 4.9%; PANC-1 (inhibition %) ([9]; 10 μM): −7.5%; PANC-1 (inhibition %) ([9]; 100 μM): −6.1%
Nc1ncccc1NC(=O)c1ccc(CNC(=O)CCc2ccc(F)cc2)cc1 [V-60, N-(2-amino-3-pyridyl)-4-[3-(4-fluorophenyl)propionylaminomethyl]benzamide]	11.8	28.5	3.7	12.2	14.6	42.7	11	33.3	-5.4	2.3	9.9	31.7	1	8.1	-7.8	-3.4	27.3	26.1	–
COc1ccc(/C=C/C(=O)NCc2ccc(C(=O)Nc3ccncc3N)cc2)cc1OC [V-94]	12.9	66.7	9.1	58.4	35	85.7	65.6	95.6	-6.4	17.8	4.5	69.4	54.2	87.8	15.1	77	6	27.3	–
N-(2-amino-3-pyridyl)-4-[(2-naphthylmethoxyacyl)aminomethyl)benzamide [V-23]	–	–	–	–	–	–	–	–	–	–	–	–	–	–	–	–	–	–	Hut-78 (inhibition %) ([1]; 10 μM): 20.7%; Hut-78 (inhibition %) ([1]; 100 μM): 10.4%; A549 (inhibition %) ([2]; compound concentration 10 μM): 4.7%; A549 (inhibition %) ([2]; compound concentration 100 μM): 3.5%; K562 (inhibition %) ([3]; 10 μM): 27.2%; K562 (inhibition %) ([3]; 100 μM): 11.9%; Jurkat E6-1 (inhibition %) ([4]; 10 μM): 33.7%; Jurkat E6-1 (inhibition %) ([4]; 100 μM): 13.9%; Colo320 (inhibition %) ([5]; compound concentration 10 μM): 15.3%; Colo320 (inhibition %) ([5]; compound concentration 100 μM): 3.9%; Hep3B (inhibition %) ([6]; compound concentration 10 μM): 16.3%; Hep3B (inhibition %) ([6]; compound concentration 100 μM): 11.2%; PC-3 (inhibition %) ([7]; compound concentration 10 μM): 10.9%; PC-3 (inhibition %) ([7]; compound concentration 100 μM): 8.6%; 435s(inhibition %) ([8]; compound concentration 10 μM): 21.6%; 435s(inhibition %) ([8]; compound concentration 100 μM): 21.0%; PANC-1 (inhibition %) ([9]; 10 μM): 7.2%; PANC-1 (inhibition %) ([9]; 100 μM): 0.5%
